SMILES strings stand for the structures. Structures can show the parent of a compound that is named as a salt. Where two headings read alike, the source gives them in different places.

One experiment relates to HCT-116. As to the kind of experiment: Cell-based assay, anti-proliferative activity (Cell Counting Kit-8, 72 hours). Particulars: Homo sapiens, read-out: IC50 (μM) HCT-116. The method, boiled down:
(§1)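 Growth inhibition is read by Cell Counting Kit-8 after three days of compound treatment. Test concentrations span 0, 1.5625, 3.125, 6.25, 12.5, 25, 50 and 100 micro-M, and IC50 serves as the anti-proliferative measure.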

A further experiment deals with CCD-18Co. The experiment is described as above. The note with it: Homo sapiens, read-out: IC50 (μM) CCD-18Co. The method, boiled down:
as §1

The next experiment deals with PC14. The description is as above. The note with it: Homo sapiens, read-out: IC50 (μM) PC14. In short, it runs like this:
as §1

Another experiment deals with HFL1. Described as above. Particulars: Homo sapiens, read-out: IC50 (μM) HFL1. In short, it runs like this: as §1
The test system of another experiment is A549. The description is as above. Particulars: Homo sapiens, read-out: IC50 (μM) A549. In short, it runs like this:
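Following seeding into 96-well microtiter plates, the cells receive candidate inhibitors, and cellular growth is quantified at the end of the exposure period. An IC50 is computed for each compound.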

In another experiment the target is SUV39H2 (Homo sapiens (Human), UniProt Q9H5I1). Particulars: read-out: IC50 (μM) Suv 39H2 assay; enzyme assay.
Where [1] appears, read: HCT-116 cells, 72 hours, Cell Counting Kit-8.
Setting [2] is: CCD-18Co cells, 72 hours, Cell Counting Kit-8.
The mark [3] stands for this setting: PC-14, PC14 cells, 72 hours, Cell Counting Kit-8.
Setting [4] is: HFL1 cells, 72 hours, Cell Counting Kit-8.
Setting [5] is: A549 cells, 72 hours, Cell Counting Kit-8.
Where [6] appears, read: HCT-116 cells, Cell Counting Kit-8, 72 hours.
Where [7] appears, read: CCD-18Co cells, Cell Counting Kit-8, 72 hours.
The mark [8] stands for this setting: HFL1 cells, Cell Counting Kit-8, 72 hours.
[9] abbreviates: A549 cells, Cell Counting Kit-8, 72 hours.

Chain of SUV39H2 (Q9H5I1 whole entry): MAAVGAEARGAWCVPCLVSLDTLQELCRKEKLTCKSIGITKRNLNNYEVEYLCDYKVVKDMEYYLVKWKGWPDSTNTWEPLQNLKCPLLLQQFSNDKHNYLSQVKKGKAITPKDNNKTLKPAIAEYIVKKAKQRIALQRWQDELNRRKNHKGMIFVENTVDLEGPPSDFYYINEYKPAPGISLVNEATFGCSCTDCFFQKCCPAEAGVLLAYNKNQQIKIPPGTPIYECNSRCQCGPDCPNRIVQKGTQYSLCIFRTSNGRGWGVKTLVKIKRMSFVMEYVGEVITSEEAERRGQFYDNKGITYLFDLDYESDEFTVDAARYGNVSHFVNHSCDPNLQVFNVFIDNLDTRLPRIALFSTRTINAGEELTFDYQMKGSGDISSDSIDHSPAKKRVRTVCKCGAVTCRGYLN

For orientation: IC50 means the concentration needed to halve the response being measured. On to `COc1cc(OC)c(-c2cn3ccc(NC(=O)C(N)CCCCN)cc3n2)cc1Cl` (stereo in doubt) [Example 247, (S)-2,6-diamino-N-(2-(5-chloro-2,4-dimethoxyphenyl)imidazo[1,2-a]-pyridin-7-yl)hexanamide], for which the IC50 is 10 µM with HCT-116 (setting [1]); 10 µM with CCD-18Co (setting [2]); 5.7 µM in the experiment on PC14 (setting [3]); 10 µM in the experiment with HFL1 (setting [4]); 10 µM in the experiment on A549 (setting [5]).
As to `COc1cc(OC)c(-c2cn3ccc(C4=CCC5(CC4)OCCO5)cc3n2)cc1Cl` [Example 117, 2-(5-chloro-2,4-dimethoxyphenyl)-7-(1,4-dioxaspiro[4.5]dec-7-en-8-yl)-imidazo[1,2-a]pyridine], the IC50 turned out to be 3 µM with HCT-116 (setting [6]); 7.7 µM with CCD-18Co (setting [7]); 5.2 µM in the experiment on HFL1 (setting [8]); 0.0633 µM on SUV39H2; 3.5 µM in the experiment with A549 (setting [9]).
On the same counts, the results for `COc1cc(OC)c(-c2cn3ccc(C4=CCOCC4)cc3n2)cc1Cl` [Example 118, 2-(5-chloro-2,4-dimethoxyphenyl)-7-(3,6-dihydro-2H-pyran-4-yl)-imidazo[1,2-a]pyridine] are 9.1 µM, 11 µM, 6.9 µM, 0.0661 µM and 6.9 µM.
For the molecule `COc1cc(OC)c(-c2cn3ccc(C4CCC(=O)CC4)cc3n2)cc1Cl` [Example 119, 4-(2-(5-chloro-2,4-dimethoxyphenyl)imidazo[1,2-a]pyridin-7-yl)-cyclohexanone], the IC50 was 9.7 µM in the experiment on HCT-116 (HCT-116, 72 h); 3.6 µM in the experiment with CCD-18Co (CCD-18Co, 72 h); 3.5 µM in the experiment on HFL1 (HFL1, 72 h); 0.0429 µM on SUV39H2; 5.8 µM with A549 (A549, 72 h).
With `COc1cc(OC)c(-c2cn3ccc(C4=CCN(C(C)=O)CC4)cc3n2)cc1Cl` [Example 120, 1-(4-(2-(5-chloro-2,4-dimethoxyphenyl)imidazo[1,2-a]pyridin-7-yl)-5,6-dihydropyridin-1(2H)-yl)ethanone], the IC50 in the experiment with HCT-116 (setting [6]) was 6.6 µM; with CCD-18Co (setting [7]), 6.8 µM; with HFL1 (setting [8]) it was 7.6 µM; at SUV39H2, 0.0364 µM; in the experiment on A549 (setting [9]) it was 6.5 µM.
For `COc1cc(OC)c(-c2cn3cc(N4CCC(N)CC4)ccc3n2)cc1Cl` [Example 121, 1-(2-(5-chloro-2,4-dimethoxyphenyl)imidazo[1,2-a]pyridin-6-yl)piperidin-4-amine], the half-inhibitory concentration (IC50) in the experiment on HCT-116 (setting [6]) was 18 µM; with CCD-18Co (setting [7]) it was 6.8 µM; in the experiment with HFL1 (setting [8]), 6.8 µM; on SUV39H2, 0.0514 µM; in the experiment on A549 (setting [9]), 8.1 µM.
On to `CNCC(=O)Nc1ccc(-c2ccn3cc(-c4cc(Cl)c(OC)cc4OC)nc3c2)cc1` [Example 273, N-(4-(2-(5-chloro-2,4-dimethoxyphenyl)imidazo[1,2-a]pyridin-7-yl)phenyl)-2-(methylamino)acetamide hydrochloride], for which the IC50 in the experiment on HCT-116 (HCT-116, 72 h) was 0.86 µM; with CCD-18Co (CCD-18Co, 72 h) it was 1.1 µM; with PC14 (PC-14, 72 h), 1.1 µM; with HFL1 (HFL1, 72 h), 1.2 µM; in the experiment with A549 (A549, 72 h), 1.5 µM.
Turning to `COc1cc(OC)c(-c2cn3ccc(-c4ccc(C(=O)[C@H](C)N)cc4)cc3n2)cc1Cl` [Example 274, (S)-2-amino-1-(4-(2-(5-chloro-2,4-dimethoxyphenyl)imidazo[1,2-a]-pyridin-7-yl)phenyl)propan-1-one hydrochloride], the concentration for half-maximal inhibition (IC50) with HCT-116 (setting [1]) turned out to be 1.6 µM; in the experiment on CCD-18Co (setting [2]), 1.5 µM; in the experiment on PC14 (setting [3]), 0.74 µM; in the experiment with HFL1 (setting [4]) it was 1.4 µM; in the experiment with A549 (A549, 72 h) it was 1.2 µM.
Regarding `COc1cc(OC)c(-c2cn3ccc(N4CC[C@H](NCc5ccncc5)C4)cc3n2)cc1Cl` [Example 298, (S)-1-(2-(5-chloro-2,4-dimethoxyphenyl)imidazo[1,2-a]pyridin-7-yl)-N-(pyridin-4-ylmethyl)pyrrolidin-3-amine trihydrochloride], the IC50 in the experiment on HCT-116 (setting [1]) worked out at 0.5 µM; in the experiment with CCD-18Co (setting [2]), 1.4 µM; with PC14 (setting [3]), 0.79 µM; in the experiment with HFL1 (setting [4]) it was 0.84 µM; in the experiment with A549 (setting [5]), 0.67 µM.

The values above are taken from patent publication US10508109B2 (priority 2015, dated 2019).
